Source: ChEMBL document CHEMBL4000195, “Design and synthesis of novel 7-aminosubstituted pyrido[2,3-b]pyrazines exhibiting anti-breast cancer activity” (Eur J Med Chem, 2017)
Active and inactive are the calls of the source. The calls are words filed in the database; no cut-off is given here.

Legend:
[1] = system: T47D; assay: Cytotoxicity against human T47D cells at 5 uM by MTT assay; assay type: functional
[2] = system: MCF7; assay: Cytotoxicity against human MCF7 cells by MTT assay; assay type: functional, cell-based
[3] = system: MDA-MB-231; assay: Cytotoxicity against human MDA-MB-231 cells by MTT assay; assay type: functional, cell-based
[4] = molecular target: Cyclin-dependent kinase 5/CDK5 activator 1 (Homo sapiens) (UniProt Q00535+Q15078); assay: Inhibition of human CDK5/p25 using histone H1 as substrate in presence of [gamma33P]ATP after 30 mins by scintillation counting method; assay type: protein-complex assay
[5] = molecular target: T1, Serine/threonine-protein kinase haspin (Homo sapiens) (UniProt Q8TF76); assay: Inhibition of human HASPIN
T1 sequence (whole entry): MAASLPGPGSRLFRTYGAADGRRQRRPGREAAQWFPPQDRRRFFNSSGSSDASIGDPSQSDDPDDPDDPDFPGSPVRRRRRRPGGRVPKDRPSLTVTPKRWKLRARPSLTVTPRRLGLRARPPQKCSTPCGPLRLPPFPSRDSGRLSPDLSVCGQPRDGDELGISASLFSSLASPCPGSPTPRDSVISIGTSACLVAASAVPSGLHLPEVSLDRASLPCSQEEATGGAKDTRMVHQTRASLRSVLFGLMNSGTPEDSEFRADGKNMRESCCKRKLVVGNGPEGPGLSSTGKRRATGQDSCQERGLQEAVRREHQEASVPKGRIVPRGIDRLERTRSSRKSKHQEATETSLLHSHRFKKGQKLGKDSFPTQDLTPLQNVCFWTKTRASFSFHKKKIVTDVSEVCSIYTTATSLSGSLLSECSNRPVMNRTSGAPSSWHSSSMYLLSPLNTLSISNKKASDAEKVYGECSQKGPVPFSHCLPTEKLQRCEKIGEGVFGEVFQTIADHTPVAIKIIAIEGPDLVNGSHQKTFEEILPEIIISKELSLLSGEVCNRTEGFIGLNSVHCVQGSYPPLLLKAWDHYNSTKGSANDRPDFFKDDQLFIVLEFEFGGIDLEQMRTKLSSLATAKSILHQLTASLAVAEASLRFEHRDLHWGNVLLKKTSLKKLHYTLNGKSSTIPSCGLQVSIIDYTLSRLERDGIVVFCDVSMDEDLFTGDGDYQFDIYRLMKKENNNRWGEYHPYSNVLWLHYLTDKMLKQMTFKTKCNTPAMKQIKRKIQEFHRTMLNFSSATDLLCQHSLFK

[6] = molecular target: Receptor-interacting serine/threonine-protein kinase 3 (Homo sapiens) (UniProt Q9Y572); assay: Inhibition of human RIPK3
[7] = molecular target: Platelet-derived growth factor receptor beta (Homo sapiens) (UniProt P09619); assay: Inhibition of recombinant human GST-tagged PDGFR-beta (557-end residues) transphosphorylation activity expressed in baculovirus infected Sf9 cells using poly[Glu:Tyr] (4:1) as substrate after 60 mins
[8] = molecular target: Mast/stem cell growth factor receptor Kit (Homo sapiens) (UniProt P10721); assay: Inhibition of recombinant human GST-tagged KIT (544-end residues) transphosphorylation activity expressed in baculovirus infected Sf9 cells using poly[Glu:Tyr] (4:1) as substrate after 60 mins
[9] = molecular target: T2, Phosphatidylinositol 4,5-bisphosphate 3-kinase catalytic subunit alpha isoform (Homo sapiens, UniProt P42336); assay: Inhibition of PI3Kalpha catalytic domain (unknown origin) using PIP2 liposomes as substrate in presence of biotin-labeled PIP3 and GST-GRP1-PH by streptavidin-HRP based assays
[10] = Cmax in NOD/SCID mouse at 0.5 mg/kg, po administered as single dose by LC-MS/MS method; assay type: ADME, organism-based; set-up: dose 0.5 mg/kg, route oral; conditions: in vivo
[11] = Tmax in NOD/SCID mouse at 0.5 mg/kg, ip administered as single dose by LC-MS/MS method; assay type: ADME, organism-based; conditions: in vivo
[12] = AUC (0 to 8 hrs) in NOD/SCID mouse at 0.5 mg/kg, po administered as single dose by LC-MS/MS method; assay type: ADME, organism-based; set-up: time < 8 hr, dose 0.5 mg/kg, route oral; conditions: in vivo
[13] = AUC (0 to 24 hrs) in NOD/SCID mouse at 10 mg/kg, ip administered twice by LC-MS/MS method; assay type: ADME, organism-based; set-up: time < 24 hr, dose 10 mg/kg, route intraperitoneal; conditions: in vivo
[14] = system: Mus musculus; assay: Toxicity in NOD/SCID mouse assessed as phenotypic changes at 40 mg/kg, ip […]; assay type: organism-based; conditions: in vivo
[15] = system: Mus musculus; assay: Toxicity in NOD/SCID mouse assessed as phenotypic changes at 10 mg/kg, ip administered once daily for 18 days measured after 1 hr last dose; assay type: organism-based; conditions: in vivo
[16] = molecular target: Mitogen-activated protein kinase 1 (Homo sapiens) (UniProt P28482); assay: Inhibition of human wild type full length ERK2 (M1 to S360 residues) expressed in bacterial expression system at 10 uM by KinomeScan method relative to control
[17] = molecular target: Tyrosine-protein kinase ITK/TSK (Homo sapiens) (UniProt Q08881); assay: Inhibition of human wild type partial length ITK (R335 to L620 residues) expressed in bacterial expression system at 10 uM by KinomeScan method relative to control
[18] = molecular target: Tyrosine-protein kinase JAK3 (Homo sapiens) (UniProt P52333); assay: Inhibition of human wild type partial length JAK3 (I781 to S1124 residues) expressed in mammalian expression system at 10 uM by KinomeScan method relative to control
[19] = molecular target: Tyrosine-protein kinase Lck (Homo sapiens) (UniProt P06239); assay: Inhibition of human wild type partial length LCK (R207 to P509 residues) expressed in bacterial expression system at 10 uM by KinomeScan method relative to control
[20] = molecular target: Serine/threonine-protein kinase 4 (Homo sapiens) (UniProt Q13043); assay: Inhibition of human wild type full length MST1 (M1 to F487 residues) expressed in bacterial expression system at 10 uM by KinomeScan method relative to control
[21] = molecular target: T2, Phosphatidylinositol 4,5-bisphosphate 3-kinase catalytic subunit alpha isoform; assay: Inhibition of human wild type partial length PIK3CA (R108 to N1068 residues) expressed in mammalian expression system at 10 uM by KinomeScan method relative to control
[22] = molecular target: Vascular endothelial growth factor receptor 2 (Homo sapiens) (UniProt P35968); assay: Inhibition of human wild type partial length VEGFR2 (R787 to P1253 residues) expressed in mammalian expression system at 10 uM by KinomeScan method relative to control
[23] = system: Mus musculus; assay: In vivo inhibition of SRC phosphorylation at Tyr-416 residue in NOD/SCID mouse tumor xenografted with HER2-amplified human HCC1954 cells at 10 mg/kg, ip administered once daily for 18 days measured after 1 hr last dose by […]; assay type: functional, organism-based

T2 sequence (P42336 whole entry, the tested form may be a part, canonical isoform): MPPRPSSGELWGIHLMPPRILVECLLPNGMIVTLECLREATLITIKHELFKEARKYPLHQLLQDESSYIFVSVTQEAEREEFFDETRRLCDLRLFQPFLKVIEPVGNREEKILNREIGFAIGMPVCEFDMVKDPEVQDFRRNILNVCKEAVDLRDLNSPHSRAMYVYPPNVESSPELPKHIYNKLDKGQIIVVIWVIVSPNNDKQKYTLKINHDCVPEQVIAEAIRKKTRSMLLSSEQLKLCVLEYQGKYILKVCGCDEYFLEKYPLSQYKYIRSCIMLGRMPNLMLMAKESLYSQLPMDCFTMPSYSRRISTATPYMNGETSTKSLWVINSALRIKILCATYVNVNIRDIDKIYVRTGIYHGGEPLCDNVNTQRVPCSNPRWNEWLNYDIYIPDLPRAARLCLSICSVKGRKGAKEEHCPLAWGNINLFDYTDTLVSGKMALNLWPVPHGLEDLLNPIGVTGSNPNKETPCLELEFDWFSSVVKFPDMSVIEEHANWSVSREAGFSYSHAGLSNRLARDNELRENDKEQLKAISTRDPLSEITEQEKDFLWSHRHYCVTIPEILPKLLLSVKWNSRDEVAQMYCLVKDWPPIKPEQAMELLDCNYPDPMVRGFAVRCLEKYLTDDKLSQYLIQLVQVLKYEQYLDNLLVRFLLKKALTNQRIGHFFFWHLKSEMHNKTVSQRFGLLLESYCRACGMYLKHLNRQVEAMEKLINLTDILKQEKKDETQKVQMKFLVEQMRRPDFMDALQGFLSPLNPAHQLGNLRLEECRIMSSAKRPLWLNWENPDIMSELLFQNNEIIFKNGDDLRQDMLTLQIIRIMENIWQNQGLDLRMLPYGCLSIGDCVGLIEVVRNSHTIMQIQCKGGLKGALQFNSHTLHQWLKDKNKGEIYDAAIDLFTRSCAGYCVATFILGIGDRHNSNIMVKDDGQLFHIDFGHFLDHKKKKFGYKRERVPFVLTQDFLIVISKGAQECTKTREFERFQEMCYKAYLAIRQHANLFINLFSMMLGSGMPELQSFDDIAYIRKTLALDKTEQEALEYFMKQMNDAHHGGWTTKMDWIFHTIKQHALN
Tyrosine-protein kinase JAK3 (Homo sapiens), sequence (P52333 whole entry, the tested form may be a part): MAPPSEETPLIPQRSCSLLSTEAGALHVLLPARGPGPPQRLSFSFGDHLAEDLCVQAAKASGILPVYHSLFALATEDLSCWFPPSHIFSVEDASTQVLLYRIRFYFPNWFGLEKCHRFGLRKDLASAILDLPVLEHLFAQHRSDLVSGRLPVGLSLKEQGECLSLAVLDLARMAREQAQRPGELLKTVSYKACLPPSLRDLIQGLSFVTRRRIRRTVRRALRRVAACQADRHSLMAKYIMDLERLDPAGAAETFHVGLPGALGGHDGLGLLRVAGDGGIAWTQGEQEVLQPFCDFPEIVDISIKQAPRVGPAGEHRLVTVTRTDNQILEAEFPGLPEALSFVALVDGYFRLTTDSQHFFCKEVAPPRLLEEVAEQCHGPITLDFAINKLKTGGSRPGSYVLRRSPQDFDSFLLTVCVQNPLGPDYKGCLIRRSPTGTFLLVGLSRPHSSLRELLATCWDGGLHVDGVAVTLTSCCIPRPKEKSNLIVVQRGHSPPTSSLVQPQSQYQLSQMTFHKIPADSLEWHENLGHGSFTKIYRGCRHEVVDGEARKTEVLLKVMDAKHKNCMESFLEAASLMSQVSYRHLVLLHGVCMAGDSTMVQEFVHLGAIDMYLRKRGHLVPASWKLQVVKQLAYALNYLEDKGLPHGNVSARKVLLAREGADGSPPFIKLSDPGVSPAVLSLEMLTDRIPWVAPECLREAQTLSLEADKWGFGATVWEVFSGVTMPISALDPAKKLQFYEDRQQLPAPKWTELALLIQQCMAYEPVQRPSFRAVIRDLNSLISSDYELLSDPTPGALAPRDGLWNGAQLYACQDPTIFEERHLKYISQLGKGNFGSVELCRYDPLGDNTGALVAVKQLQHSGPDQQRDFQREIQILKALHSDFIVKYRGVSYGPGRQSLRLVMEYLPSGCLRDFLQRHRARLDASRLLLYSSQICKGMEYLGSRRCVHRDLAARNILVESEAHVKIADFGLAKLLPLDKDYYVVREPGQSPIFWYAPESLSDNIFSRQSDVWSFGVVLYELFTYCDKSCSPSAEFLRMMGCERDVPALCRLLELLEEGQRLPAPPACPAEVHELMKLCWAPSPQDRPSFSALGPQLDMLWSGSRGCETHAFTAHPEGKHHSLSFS
Receptor-interacting serine/threonine-protein kinase 3 (Homo sapiens), sequence (Q9Y572 whole entry, looked up): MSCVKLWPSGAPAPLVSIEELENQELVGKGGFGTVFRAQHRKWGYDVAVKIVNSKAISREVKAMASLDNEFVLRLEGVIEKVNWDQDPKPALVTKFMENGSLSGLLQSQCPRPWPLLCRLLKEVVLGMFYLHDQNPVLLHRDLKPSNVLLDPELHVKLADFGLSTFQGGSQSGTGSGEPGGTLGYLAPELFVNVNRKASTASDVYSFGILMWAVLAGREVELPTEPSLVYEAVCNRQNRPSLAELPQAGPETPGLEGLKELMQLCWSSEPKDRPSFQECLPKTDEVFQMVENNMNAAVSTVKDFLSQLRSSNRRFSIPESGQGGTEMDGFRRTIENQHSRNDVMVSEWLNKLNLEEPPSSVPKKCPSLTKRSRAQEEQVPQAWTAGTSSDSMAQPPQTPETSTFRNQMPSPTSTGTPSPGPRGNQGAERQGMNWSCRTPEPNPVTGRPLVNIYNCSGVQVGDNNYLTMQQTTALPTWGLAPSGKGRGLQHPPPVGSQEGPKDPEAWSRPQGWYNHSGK
Tyrosine-protein kinase Lck (Homo sapiens), sequence (P06239 2-509 limits assumed): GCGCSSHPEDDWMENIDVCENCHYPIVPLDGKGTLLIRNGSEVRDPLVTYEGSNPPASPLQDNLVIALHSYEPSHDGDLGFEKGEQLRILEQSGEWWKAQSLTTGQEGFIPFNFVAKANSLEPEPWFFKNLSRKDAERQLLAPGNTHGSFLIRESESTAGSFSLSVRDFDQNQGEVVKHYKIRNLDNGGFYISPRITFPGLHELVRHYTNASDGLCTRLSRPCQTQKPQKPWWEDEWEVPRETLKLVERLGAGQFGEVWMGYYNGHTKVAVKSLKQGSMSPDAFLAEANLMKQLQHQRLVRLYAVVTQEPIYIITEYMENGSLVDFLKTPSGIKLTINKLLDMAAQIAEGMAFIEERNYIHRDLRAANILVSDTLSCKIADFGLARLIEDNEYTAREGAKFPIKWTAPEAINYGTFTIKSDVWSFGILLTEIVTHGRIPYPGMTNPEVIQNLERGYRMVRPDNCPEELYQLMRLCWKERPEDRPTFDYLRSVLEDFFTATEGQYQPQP
Cyclin-dependent kinase 5/CDK5 activator 1 (Homo sapiens), sequence (Q00535 whole entry): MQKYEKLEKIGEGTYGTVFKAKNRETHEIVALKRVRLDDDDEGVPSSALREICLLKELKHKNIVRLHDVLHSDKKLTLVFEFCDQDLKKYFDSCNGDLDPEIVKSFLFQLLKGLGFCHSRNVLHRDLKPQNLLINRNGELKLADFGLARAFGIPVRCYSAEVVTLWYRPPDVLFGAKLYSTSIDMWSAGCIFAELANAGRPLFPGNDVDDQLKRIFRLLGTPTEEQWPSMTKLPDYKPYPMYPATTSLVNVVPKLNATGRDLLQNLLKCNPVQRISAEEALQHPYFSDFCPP
Cyclin-dependent kinase 5/CDK5 activator 1 (Homo sapiens), sequence (Q15078 99-307 partner limits assumed): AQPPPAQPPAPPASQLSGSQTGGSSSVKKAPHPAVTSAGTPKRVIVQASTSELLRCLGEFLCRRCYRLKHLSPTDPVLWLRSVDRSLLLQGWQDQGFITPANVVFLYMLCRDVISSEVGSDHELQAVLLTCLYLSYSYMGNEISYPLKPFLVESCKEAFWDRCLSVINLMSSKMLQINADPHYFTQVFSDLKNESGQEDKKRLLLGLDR
Vascular endothelial growth factor receptor 2 (Homo sapiens), sequence (P35968 whole entry, the tested form may be a part): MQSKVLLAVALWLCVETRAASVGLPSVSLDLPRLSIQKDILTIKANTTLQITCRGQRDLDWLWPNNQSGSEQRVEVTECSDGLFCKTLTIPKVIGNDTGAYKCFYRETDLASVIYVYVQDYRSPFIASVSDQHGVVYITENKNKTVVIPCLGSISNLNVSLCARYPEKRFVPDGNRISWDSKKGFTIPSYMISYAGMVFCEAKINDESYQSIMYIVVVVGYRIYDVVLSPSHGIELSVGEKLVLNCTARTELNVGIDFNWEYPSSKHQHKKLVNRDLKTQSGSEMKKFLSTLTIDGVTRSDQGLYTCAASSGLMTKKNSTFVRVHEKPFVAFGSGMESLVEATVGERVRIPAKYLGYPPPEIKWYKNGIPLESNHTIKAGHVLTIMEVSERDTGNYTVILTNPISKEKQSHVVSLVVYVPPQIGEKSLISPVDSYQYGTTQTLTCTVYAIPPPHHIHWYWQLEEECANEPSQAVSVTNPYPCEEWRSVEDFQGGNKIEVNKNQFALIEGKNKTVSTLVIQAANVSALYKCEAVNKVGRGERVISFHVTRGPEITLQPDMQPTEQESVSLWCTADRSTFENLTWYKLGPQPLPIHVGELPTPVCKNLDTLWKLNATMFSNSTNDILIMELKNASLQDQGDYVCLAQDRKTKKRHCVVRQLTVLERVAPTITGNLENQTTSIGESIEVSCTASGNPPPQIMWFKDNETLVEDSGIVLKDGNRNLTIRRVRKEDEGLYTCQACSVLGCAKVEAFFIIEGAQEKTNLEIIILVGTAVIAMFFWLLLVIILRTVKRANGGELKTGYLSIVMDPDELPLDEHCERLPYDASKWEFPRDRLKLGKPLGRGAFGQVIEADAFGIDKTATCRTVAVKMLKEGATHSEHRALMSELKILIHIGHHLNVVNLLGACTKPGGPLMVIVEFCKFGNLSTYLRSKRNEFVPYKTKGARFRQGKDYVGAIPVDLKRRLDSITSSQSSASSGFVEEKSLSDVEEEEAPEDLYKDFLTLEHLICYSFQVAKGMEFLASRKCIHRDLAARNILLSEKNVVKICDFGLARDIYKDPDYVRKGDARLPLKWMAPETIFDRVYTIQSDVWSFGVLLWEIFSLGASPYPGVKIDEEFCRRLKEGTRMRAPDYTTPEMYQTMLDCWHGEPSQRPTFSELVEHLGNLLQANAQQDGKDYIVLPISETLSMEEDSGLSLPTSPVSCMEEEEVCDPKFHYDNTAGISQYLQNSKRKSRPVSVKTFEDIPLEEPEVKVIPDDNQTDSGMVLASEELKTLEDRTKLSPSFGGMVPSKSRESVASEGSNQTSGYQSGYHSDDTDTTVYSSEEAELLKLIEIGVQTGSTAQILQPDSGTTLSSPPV

inhibition [4]: inactive
inhibition [5]: inactive
inhibition [6]: inactive
inhibition [7]: inactive
inhibition [8]: inactive
IC50 [9]: 26 µM
Cmax [10]: 470 nM
Tmax [11]: 30 min
AUC(0-t) at 8 h [12]: 1.53 µM·h
AUC(0-t) at 24 h [13]: 70.8 µM·h
inhibition [16]: 0%
inhibition [17]: 5%
inhibition [18]: 0%
inhibition [19]: 2%
inhibition [20]: 0%
inhibition [21]: 0%
inhibition [22]: 1%
Compound: Cc1nc2nc(Sc3ccccc3)cnc2cc1NC(=O)Nc1ccccc1
Activity [1]: >50%
IC50 [2]: 3.1 µM
IC50 [3]: 6.1 µM
Activity [14]: Toxic
Activity [15]: Non-Toxic
inhibition [23]: Active
